From patent publication US20200155478A1, “XIBORNOL FOR USE IN THE TREATMENT OF ACNE VULGARIS” (ABIOGEN PHARMA S.P.A., priority 2017, published 2020)
In brackets after ≈: the same amount, converted by molar mass.

Tests used:
[1] = Dissolution of xibornol in 4% isopropanol; assay type: physicochemical
Procedure: In order to perform the antimicrobial tests in aqueous solutions (broth and agar), said xibornol, a lipophilic molecule, was dissolved in a hydrophilic solvent, and more specifically in isopropanol.

[2] = test system: RHE EPISKIN artificial epidermis; test: Skin irritation and sensitisation test (OECD TG 404), MTT viability; assay type: cell-based, human; settings: liquid formulations of xibornol, isopropanol and PBS buffer; 42' contact, assessed after 42 hours
Procedure: In order to establish the usable concentrations of xibornol in solution for the production of pharmaceutical forms intended for external topical use, a skin irritation and sensitisation test was carried out, according to standard OECD TG 404, method B.4, Annex V, Directive 67/548/EEC. A RHE EPISKIN artificial epidermis unit was used for the test. The kit consisted of 24 reconstructed epidermis units with a total area of 0.33 cm^2. Each unit consisted of a collagen matrix with a stratified, differentiated epidermis derived from human keratinocytes placed on top thereof. The substances to be tested were placed in contact (42′) with the epidermis and the effects assessed after 42 hours, incubating the units with MTT (3-(4,5-dimethylthiazol-2-yl)-2,5-diphenyltetrazolium bromide) which, under the experimental conditions, reduced to formazan upon contact with metabolically active cells, turning the coloured solution from yellow into blue. Since the obtained colour is directly proportional to the concentration of formazan, and therefore to the cell viability, after incubation with MTT for 3 hours, optical density readings were taken by using the spectrophotometer (DO 572-650 nm).

[3] = test system: Propionibacterium acnes; test: Determination of the minimum bactericidal concentration (MBC), inoculation on RCA plates; assay type: cell-based
Procedure: (§1) Two strains of Propionibacterium acnes were used for this test: the Grerath strain (ATCC-11827) and the VPI 0389 strain (ATCC-6919).
(§2) Clostridial differential broth (CDB, liquid medium) and reinforced clostridial agar (RCA, solid medium) were used for the culture. Growth occurred under anaerobic conditions obtained in a 7.0 L GENBOX JAR.
(§3) The anaerobic conditions were obtained by activating the Anaerocult A preparation and the anaerobiosis control was assessed by using ANAEROTEST strips for microbiology.
(§4) The Propionibacterium acnes was incubated at 37° C. for 72 hours.
To determine the minimum bactericidal concentration (MBC), 10 μl of solution was taken from each well on the above described plate and inoculated on RCA plates containing the same concentrations of xibornol in 4% isopropanol present in the wells of the plate.

[4] = test system: inflammatory cytokine IL-8; test: Mouse model for Acne vulgaris induced by Propionibacterium acnes, IL-8 ELISA in ear homogenate supernatants; assay type: in vivo, Balb/c strain mice
Procedure: For the experiment, female Balb/c strain mice were used, grouped according to the experimental plan shown below in Table 5: [table] The sham group consisted of mice which received an intradermal injection, in each ear, of 25 μl of D-PBS (Dulbecco's phosphate buffered saline), while the other two groups consisted of mice which received an intradermal injection, in each ear, of 25 μl of D-PBS containing 10^8 CFU (colony-forming units) of Propionibacterium acnes. As of the day following the injection: • the sham group of mice was not treated; • the control group was treated, once a day, for 7 consecutive days, directly to the sites of inoculation of the bacterium, with a topical application of the formulation without active principle, i.e. with the carrier, consisting of three parts of paraffin oil and two parts of filamentary vaseline; • the […], once a day, for 7 consecutive days, directly to the sites of inoculation of the bacterium), with a topical application of the formulation containing xibornol in a concentration of 0.1% (corresponding to 0.79 mg/mL) in the carrier, consisting of three parts of paraffin oil and two parts of filamentary vaseline. The mice were sacrificed 24 hours after the last topical application. […]

[5] = test system: Propionibacterium acnes; test: Determination of the minimum inhibitory concentration (MIC), 96-well broth plate, OD 600 nm and PrestoBlue; assay type: cell-based
Procedure: as §1, §2, §3, §4
Propionibacterium acnes strains were reactivated from ATCC vials, rehydrated with CDB medium, and then seeded on RCA plates.
To cultivate Propionibacterium acnes in broth, isolated colonies were taken from culture plates and inoculated in the CBD medium.
After culturing, the concentration of bacterial cells was normalised using the McFarland 0.5 standard.
A 96-well plate was prepared in order to establish the minimum inhibitory concentration; the xibornol was dissolved in a 4% isopropanol solution in various concentrations, and the samples were prepared according to the experimental plan shown in the following table 1.
All the wells in rows D, E, F and the first three wells from the left in row H contained Propionibacterium acnes at the final concentration of 5×10^5 bacteria/mL.
Row G (wells 1, 2, 3) was the negative control and contained only the culture medium, without bacteria, xibornol, or isopropanol.
Row H (wells 1,2,3) was the positive control and contained the bacterial culture without xibornol or isopropanol.
Unmarked wells were empty.
The reading of the plate, after an incubation under anaerobic conditions at 37° C., was performed after 72 hours.
A first spectrophotometer reading was taken, including measurement of the OD (optical density) at 600 nm.
To highlight the presence or absence of bacterial growth on the plate described above, PrestoBlue was also used, which is a resazurin-based solution which uses the reducing power of cells to measure cell proliferation. Said solution is blue and turns into red upon contact with live bacterial cells.
After having incubated the plate with the PrestoBlue and read the fluorescence values by using a Victor 3 Wallac microplate reader, the data were confirmed.

In the case of `Cc1cc(O)c(C2CC3CCC2(C)C3(C)C)cc1C` (racemic) [xibornol, 4,5-dimethyl-2-[1,7,7-trimethylbicyclo[2.2.1]heptan-2-yl]phenol], the “amount of xibornol dissolved by 4% isopropanol” value [1] was “up to 1200 μg/mL”, the “concentration of xibornol administrable topically without irritation or sensitisation of the epidermis” value [2] was “less than 5 mg/mL” and the “concentration of xibornol administrable topically without irritation or sensitisation of the epidermis, even more preferably” value [2] was “less than 2.5 mg/mL”. The “minimum bactericidal concentration (MBC)” value ([3]; 10 μl from each well inoculated on RCA plates with the same xibornol concentrations in 4% isopropanol) was 9.37 µg/mL (≈ 36.3 µM), the MBC ([3]; Cutibacterium acnes, 10 μl from each well inoculated on RCA plates with the same xibornol concentrations in 4% isopropanol) was 4.69 to 9.37 µg/mL (≈ 18.1 to 36.3 µM) and the “growth on RCA plates” value ([3]; xibornol 4.69 μg/mL) was “massive growth, comparable to that of the positive control”. For the same compound, the “Average concentration of IL-8” value ([4]; 0.1% xibornol (0.79 mg/mL) in paraffin oil/vaseline carrier, topical once a day for 7 days, ear homogenate supernatant) was 190.61 pg/mL, the “change in IL-8 levels with respect to the control group” value ([4]; 0.1% xibornol topical, once a day for 7 days) was “significant reduction” and the MIC ([5]; Cutibacterium acnes, ATCC 11827 / ATCC 6919, 72 h, strains ATCC-11827 and ATCC-6919, anaerobic, 37° C., 72 hours, xibornol racemate in 4% isopropanol) was 4.69 to 9.37 µg/mL (≈ 18.1 to 36.3 µM). For the same compound, the “antibacterial efficacy compared with clindamycin” value ([5]; Propionibacterium acnes) was “comparable to that of clindamycin”, the “minimum inhibitory concentration (MIC)” value ([5]; strains ATCC-11827 and ATCC-6919, anaerobic, 37° C., 72 hours, xibornol racemate in 4% isopropanol) was 9.37 µg/mL (≈ 36.3 µM) and the “bacterial growth in wells” value ([5]; xibornol at 4.69 μg/mL, 2.34 μg/mL, 1.17 μg/mL, 72 hours, PrestoBlue red colour) was “bacterial growth was observed”.
